Data from the kinase profiling compilation of Christmann-Franck et al. (2016).

Columns and labels:
Experiment in all cases: radiometric filter-binding kinase assay, Kinase HotSpot
Conditions in all cases: compound 0.5 µM; ATP 10 µM
[1] = target: HIPK3 (human) (UniProt Q9H422)
[2] = target: CHUK (human) (UniProt O15111)
[3] = target: NEK7 (human) (UniProt Q8TDX7)
[4] = target: CHEK1 (human) (UniProt O14757)
[5] = target: RIPK2 (human) (UniProt O43353)
[6] = target: TSSK2 (human) (UniProt Q96PF2)
[7] = target: CDK2 CCNE1 (human) (UniProt P24941+P24864)
CDK2 CCNE1 (human), sequence (P24864 whole entry, looked up, other chains not shown): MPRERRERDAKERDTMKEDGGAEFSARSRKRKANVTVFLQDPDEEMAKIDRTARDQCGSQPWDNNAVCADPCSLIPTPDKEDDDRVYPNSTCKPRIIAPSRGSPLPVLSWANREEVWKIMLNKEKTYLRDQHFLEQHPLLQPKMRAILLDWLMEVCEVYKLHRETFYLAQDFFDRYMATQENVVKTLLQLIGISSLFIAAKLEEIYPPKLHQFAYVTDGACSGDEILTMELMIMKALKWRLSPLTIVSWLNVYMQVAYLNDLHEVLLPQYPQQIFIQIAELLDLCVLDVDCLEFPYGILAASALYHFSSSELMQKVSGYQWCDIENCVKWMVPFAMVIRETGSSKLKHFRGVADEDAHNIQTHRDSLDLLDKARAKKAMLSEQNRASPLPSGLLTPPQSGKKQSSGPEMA

[8] = target: TAOK1 (human) (UniProt Q7L7X3)
[9] = target: MATK (human) (UniProt P42679)
[10] = target: TXK (human) (UniProt P42681)
[11] = target: MELK (human) (UniProt Q14680)
MELK (human), sequence (Q14680 whole entry, looked up): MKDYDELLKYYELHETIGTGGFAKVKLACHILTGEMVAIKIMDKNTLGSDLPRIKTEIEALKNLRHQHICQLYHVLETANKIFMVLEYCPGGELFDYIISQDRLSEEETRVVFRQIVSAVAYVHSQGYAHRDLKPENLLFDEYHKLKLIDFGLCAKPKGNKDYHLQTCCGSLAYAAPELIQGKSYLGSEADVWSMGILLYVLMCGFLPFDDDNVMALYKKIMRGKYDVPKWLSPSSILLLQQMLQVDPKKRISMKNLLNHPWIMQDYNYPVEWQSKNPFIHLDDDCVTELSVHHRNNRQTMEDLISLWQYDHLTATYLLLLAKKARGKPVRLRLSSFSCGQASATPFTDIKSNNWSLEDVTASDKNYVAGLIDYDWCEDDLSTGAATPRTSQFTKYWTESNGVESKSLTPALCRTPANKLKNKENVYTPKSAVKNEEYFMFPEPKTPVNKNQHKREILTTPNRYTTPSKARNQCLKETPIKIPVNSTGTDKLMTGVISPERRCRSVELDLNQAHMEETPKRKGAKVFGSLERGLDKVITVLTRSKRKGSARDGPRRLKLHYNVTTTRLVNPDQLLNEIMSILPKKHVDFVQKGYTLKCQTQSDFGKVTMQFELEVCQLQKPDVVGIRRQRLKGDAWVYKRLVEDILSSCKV

[12] = target: RPS6KA3 KD1 KD2 (human) (UniProt P51812)
[13] = target: NEK3 (human) (UniProt P51956)
[14] = target: CSNK1E (human) (UniProt P49674)
CSNK1E (human), sequence (P49674 whole entry, looked up): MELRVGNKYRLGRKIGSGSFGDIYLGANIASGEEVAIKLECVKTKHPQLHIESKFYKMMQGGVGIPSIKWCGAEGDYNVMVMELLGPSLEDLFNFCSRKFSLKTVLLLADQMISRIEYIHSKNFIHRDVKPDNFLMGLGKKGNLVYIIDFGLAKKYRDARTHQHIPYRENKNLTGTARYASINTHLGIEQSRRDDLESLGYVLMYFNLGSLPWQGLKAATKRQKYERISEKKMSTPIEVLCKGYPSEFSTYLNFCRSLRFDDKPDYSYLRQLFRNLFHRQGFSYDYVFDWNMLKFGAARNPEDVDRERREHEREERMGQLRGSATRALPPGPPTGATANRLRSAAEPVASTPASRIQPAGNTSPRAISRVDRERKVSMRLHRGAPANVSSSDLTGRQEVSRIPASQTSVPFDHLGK

[15] = target: PRKCZ (human) (UniProt Q05513)
[16] = target: BLK (human) (UniProt P51451)
[17] = target: CDK5 CDK5R1 p25 (human) (UniProt Q00535+Q15078)
[18] = target: CAMK2D (human) (UniProt Q13557)
[19] = target: FGFR4 (human) (UniProt P22455)
[20] = target: RPS6KA2 KD1 KD2 (human) (UniProt Q15349)
RPS6KA2 KD1 KD2 (human), sequence (Q15349 whole entry, looked up): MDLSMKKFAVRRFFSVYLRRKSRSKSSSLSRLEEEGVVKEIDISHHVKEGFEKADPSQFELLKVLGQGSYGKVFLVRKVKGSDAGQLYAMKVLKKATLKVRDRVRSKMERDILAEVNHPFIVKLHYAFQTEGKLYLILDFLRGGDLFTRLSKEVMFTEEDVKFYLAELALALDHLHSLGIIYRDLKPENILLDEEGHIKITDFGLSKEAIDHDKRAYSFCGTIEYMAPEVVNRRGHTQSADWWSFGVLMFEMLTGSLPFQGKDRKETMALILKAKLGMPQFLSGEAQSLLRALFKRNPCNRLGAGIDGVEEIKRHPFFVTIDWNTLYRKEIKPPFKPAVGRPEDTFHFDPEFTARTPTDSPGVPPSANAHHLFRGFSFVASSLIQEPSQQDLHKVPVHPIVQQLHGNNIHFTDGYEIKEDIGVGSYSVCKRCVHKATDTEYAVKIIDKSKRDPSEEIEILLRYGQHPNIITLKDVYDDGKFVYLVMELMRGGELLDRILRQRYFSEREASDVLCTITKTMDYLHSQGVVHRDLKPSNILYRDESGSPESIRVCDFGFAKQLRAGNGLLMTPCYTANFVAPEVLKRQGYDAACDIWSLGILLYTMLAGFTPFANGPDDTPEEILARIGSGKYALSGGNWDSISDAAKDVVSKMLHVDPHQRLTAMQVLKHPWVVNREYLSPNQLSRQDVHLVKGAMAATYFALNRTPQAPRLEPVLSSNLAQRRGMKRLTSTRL

[21] = target: MAP3K8 (human) (UniProt P41279)
[22] = target: PNCK (human) (UniProt Q6P2M8)
PNCK (human), sequence (Q6P2M8 whole entry, looked up): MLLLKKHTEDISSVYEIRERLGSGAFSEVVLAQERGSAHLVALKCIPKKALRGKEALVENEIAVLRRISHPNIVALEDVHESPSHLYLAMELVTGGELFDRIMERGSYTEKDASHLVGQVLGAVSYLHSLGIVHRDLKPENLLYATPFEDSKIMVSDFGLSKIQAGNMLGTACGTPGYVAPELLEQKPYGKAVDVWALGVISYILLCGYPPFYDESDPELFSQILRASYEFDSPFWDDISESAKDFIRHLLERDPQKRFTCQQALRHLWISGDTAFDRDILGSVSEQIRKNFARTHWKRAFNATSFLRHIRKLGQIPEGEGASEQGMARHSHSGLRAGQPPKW

[23] = target: TYRO3 (human) (UniProt Q06418)
[24] = target: MAPK1 (human) (UniProt P28482)
[25] = target: ULK1 (human) (UniProt O75385)
[26] = target: PIM2 (human) (UniProt Q9P1W9)
[27] = target: MAP4K2 (human) (UniProt Q12851)
[28] = target: MAPK8 (human) (UniProt P45983)
[29] = target: CHEK2 (human) (UniProt O96017)
[30] = target: EPHA3 (human) (UniProt P29320)
EPHA3 (human), sequence (P29320 whole entry, looked up): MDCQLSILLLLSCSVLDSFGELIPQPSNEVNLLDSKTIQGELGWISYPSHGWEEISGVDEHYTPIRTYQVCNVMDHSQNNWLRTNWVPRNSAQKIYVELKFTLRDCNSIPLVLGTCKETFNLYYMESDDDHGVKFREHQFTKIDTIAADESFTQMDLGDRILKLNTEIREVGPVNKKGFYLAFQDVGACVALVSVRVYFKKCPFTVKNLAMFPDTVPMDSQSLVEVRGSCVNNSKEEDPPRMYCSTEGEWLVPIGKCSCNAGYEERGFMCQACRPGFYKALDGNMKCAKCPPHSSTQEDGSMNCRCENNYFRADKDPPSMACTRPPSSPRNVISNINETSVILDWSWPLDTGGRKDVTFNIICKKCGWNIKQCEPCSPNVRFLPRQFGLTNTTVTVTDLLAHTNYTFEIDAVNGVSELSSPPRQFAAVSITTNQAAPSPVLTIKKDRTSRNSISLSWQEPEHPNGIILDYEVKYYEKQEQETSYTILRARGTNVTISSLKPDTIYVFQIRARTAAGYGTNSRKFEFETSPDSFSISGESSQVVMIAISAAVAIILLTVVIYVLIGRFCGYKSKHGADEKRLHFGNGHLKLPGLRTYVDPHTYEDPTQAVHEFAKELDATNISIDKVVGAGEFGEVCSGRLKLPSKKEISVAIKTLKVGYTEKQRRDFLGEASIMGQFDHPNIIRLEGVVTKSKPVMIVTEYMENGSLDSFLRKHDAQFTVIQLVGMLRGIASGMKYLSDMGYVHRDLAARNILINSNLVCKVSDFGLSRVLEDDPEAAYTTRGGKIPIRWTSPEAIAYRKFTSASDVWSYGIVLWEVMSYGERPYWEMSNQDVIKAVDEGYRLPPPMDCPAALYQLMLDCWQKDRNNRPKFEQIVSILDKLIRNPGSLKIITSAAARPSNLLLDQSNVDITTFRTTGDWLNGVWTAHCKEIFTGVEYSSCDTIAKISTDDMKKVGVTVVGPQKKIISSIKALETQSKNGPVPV

[31] = target: FRK (human) (UniProt P42685)
[32] = target: CDK4 CCND3 (human) (UniProt P30281+P11802)
[33] = target: PBK (human) (UniProt Q96KB5)
[34] = target: FER (human) (UniProt P16591)
[35] = target: TTK (human) (UniProt P33981)
[36] = target: KIT (human) (UniProt P10721)
[37] = target: CDK9 CCNK (human) (UniProt O75909+P50750)
[38] = target: PRKD3 (human) (UniProt O94806)
[39] = target: CDK2 CCNA2 (human) (UniProt P24941+P20248)
[40] = target: MARK4 (human) (UniProt Q96L34)
MARK4 (human), sequence (Q96L34 whole entry, looked up): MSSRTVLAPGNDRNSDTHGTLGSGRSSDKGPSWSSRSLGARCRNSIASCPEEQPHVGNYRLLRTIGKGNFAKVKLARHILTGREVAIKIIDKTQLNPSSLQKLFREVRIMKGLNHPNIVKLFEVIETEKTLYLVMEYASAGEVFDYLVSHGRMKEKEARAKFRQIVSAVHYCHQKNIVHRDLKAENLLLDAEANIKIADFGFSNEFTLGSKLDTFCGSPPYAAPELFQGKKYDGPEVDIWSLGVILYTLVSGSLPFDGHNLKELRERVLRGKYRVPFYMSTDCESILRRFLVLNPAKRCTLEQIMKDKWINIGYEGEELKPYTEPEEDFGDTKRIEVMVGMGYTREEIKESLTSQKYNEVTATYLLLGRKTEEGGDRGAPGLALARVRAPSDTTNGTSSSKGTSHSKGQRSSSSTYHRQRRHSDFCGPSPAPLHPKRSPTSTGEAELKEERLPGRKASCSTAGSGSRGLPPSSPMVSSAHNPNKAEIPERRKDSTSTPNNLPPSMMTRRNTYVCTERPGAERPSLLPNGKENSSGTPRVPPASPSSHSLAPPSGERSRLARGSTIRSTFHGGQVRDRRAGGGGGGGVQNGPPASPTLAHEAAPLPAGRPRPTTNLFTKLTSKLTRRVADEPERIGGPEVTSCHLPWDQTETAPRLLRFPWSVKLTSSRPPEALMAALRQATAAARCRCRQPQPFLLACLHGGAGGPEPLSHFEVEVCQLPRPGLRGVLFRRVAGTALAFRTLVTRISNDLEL

[41] = target: TEC (human) (UniProt P42680)

CHUK (human), sequence (O15111 whole entry, looked up): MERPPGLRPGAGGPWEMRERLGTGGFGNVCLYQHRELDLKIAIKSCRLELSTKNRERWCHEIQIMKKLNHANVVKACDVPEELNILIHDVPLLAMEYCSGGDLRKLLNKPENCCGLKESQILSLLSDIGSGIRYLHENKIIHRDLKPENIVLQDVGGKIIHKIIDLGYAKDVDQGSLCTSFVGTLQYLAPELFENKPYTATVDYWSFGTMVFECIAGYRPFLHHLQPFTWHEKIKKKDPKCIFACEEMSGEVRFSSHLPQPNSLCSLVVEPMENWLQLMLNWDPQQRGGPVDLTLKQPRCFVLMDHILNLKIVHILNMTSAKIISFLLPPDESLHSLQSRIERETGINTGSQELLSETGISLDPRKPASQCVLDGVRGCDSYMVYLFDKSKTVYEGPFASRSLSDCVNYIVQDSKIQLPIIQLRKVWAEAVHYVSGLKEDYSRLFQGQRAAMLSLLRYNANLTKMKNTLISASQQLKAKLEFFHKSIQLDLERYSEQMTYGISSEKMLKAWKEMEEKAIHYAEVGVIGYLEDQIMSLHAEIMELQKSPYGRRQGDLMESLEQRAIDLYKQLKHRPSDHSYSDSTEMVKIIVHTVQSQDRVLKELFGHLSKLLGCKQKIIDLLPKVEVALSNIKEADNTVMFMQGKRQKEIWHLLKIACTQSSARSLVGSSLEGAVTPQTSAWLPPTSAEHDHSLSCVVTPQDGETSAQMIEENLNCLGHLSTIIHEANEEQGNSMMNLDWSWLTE

CCCC(=O)Oc1ccc2[nH]c(C(=O)c3cc4ccccc4[nH]3)cc2c1
residual activity [1]: 94.7%
residual activity [2]: 94.5%
residual activity [3]: 95.5%
residual activity [4]: 89.7%
residual activity [5]: 90%
residual activity [6]: 78%
residual activity [7]: 92.1%
residual activity [8]: 82.8%
residual activity [9]: 93.4%
residual activity [10]: 99.1%
residual activity [11]: 96.4%
residual activity [12]: 97.5%
residual activity [13]: 95.5%
residual activity [14]: 97.4%
residual activity [15]: 98.3%
residual activity [16]: 102%
residual activity [17]: 90.1%
residual activity [18]: 111%
residual activity [19]: 90.9%
residual activity [20]: 85%
residual activity [21]: 97.6%
residual activity [22]: 99.4%
residual activity [23]: 101%
residual activity [24]: 105%
residual activity [25]: 103%
residual activity [26]: 101%
residual activity [27]: 95.3%
residual activity [28]: 84%
residual activity [29]: 99%
residual activity [30]: 96.8%
residual activity [31]: 98.2%
residual activity [32]: 103%
residual activity [33]: 104%
residual activity [34]: 101%
residual activity [35]: 85.7%
residual activity [36]: 82.4%
residual activity [37]: 104%
residual activity [38]: 102%
residual activity [39]: 88.9%
residual activity [40]: 84.1%
residual activity [41]: 97.8%

Cc1ccc(NC2=CC(=O)c3sc(C)nc3C2=O)cc1
residual activity [1]: 101%
residual activity [2]: 91.9%
residual activity [3]: 96.9%
residual activity [4]: 91.1%
residual activity [5]: 95.2%
residual activity [6]: 98.3%
residual activity [7]: 72.9%
residual activity [8]: 99.8%
residual activity [9]: 88.3%
residual activity [10]: 98.8%
residual activity [11]: 93.2%
residual activity [12]: 104%
residual activity [13]: 88.2%
residual activity [14]: 93.4%
residual activity [15]: 98.2%
residual activity [16]: 95.4%
residual activity [17]: 61.9%
residual activity [18]: 93.2%
residual activity [19]: 86.7%
residual activity [20]: 82.5%
residual activity [21]: 90.2%
residual activity [22]: 95.3%
residual activity [23]: 95.3%
residual activity [24]: 91.4%
residual activity [25]: 114%
residual activity [26]: 103%
residual activity [27]: 104%
residual activity [28]: 100%
residual activity [29]: 100%
residual activity [30]: 96.6%
residual activity [31]: 87.9%
residual activity [32]: 93.7%
residual activity [33]: 85.8%
residual activity [34]: 83.9%
residual activity [35]: 98.9%
residual activity [36]: 74.7%
residual activity [37]: 84.4%
residual activity [38]: 93.5%
residual activity [39]: 88.1%
residual activity [40]: 102%
residual activity [41]: 117%

O=C(Nc1cccc(Nc2nccc(Nc3cccc(C(F)(F)F)c3)n2)c1)C1CC1
residual activity [1]: 104%
residual activity [2]: 95.7%
residual activity [3]: 116%
residual activity [4]: 96.6%
residual activity [5]: 81.6%
residual activity [6]: 97.1%
residual activity [7]: 85.1%
residual activity [8]: 97.9%
residual activity [9]: 101%
residual activity [10]: 90.2%
residual activity [11]: 101%
residual activity [12]: 100%
residual activity [13]: 95.8%
residual activity [14]: 110%
residual activity [15]: 98.8%
residual activity [16]: 99.8%
residual activity [17]: 99%
residual activity [18]: 93.5%
residual activity [19]: 101%
residual activity [20]: 101%
residual activity [21]: 111%
residual activity [22]: 106%
residual activity [23]: 93.8%
residual activity [24]: 89%
residual activity [25]: 105%
residual activity [26]: 112%
residual activity [27]: 112%
residual activity [28]: 85.7%
residual activity [29]: 107%
residual activity [30]: 105%
residual activity [31]: 92.2%
residual activity [32]: 103%
residual activity [33]: 101%
residual activity [34]: 93%
residual activity [35]: 92.1%
residual activity [36]: 86.1%
residual activity [37]: 107%
residual activity [38]: 91.9%
residual activity [39]: 98.2%
residual activity [40]: 108%
residual activity [41]: 158%

CCN(CC)CCNC(=O)c1c(C)[nH]c(/C=C2\C(=O)Nc3ccc(Cl)cc32)c1C
residual activity [1]: 50.8%
residual activity [2]: 102%
residual activity [3]: 99.3%
residual activity [4]: 15.1%
residual activity [5]: 84.1%
residual activity [6]: 66.9%
residual activity [7]: 90%
residual activity [8]: 65.8%
residual activity [9]: 96.8%
residual activity [10]: 79.5%
residual activity [11]: 16.7%
residual activity [12]: 15.1%
residual activity [13]: 94%
residual activity [14]: 46.7%
residual activity [15]: 104%
residual activity [16]: 15.8%
residual activity [17]: 95.1%
residual activity [18]: 7.25%
residual activity [19]: 70.5%
residual activity [20]: 10%
residual activity [21]: 113%
residual activity [22]: 70.5%
residual activity [23]: 23.2%
residual activity [24]: 97.1%
residual activity [25]: 13.6%
residual activity [26]: 101%
residual activity [27]: 8.07%
residual activity [28]: 97.2%
residual activity [29]: 6.42%
residual activity [30]: 92.5%
residual activity [31]: 59.3%
residual activity [32]: 86.3%
residual activity [33]: 104%
residual activity [34]: 17.7%
residual activity [35]: 59.8%
residual activity [36]: 28.7%
residual activity [37]: 40.1%
residual activity [38]: 8.04%
residual activity [39]: 92.8%
residual activity [40]: 7.19%
residual activity [41]: 102%
